Assay results from US20070004720A1, “Use of tyrosine kinase inhibitors for the treatment of inflammatory processes” (priority 2003, published 2007).

System: cigarette smoke-induced influx of neutrophilic granulocytes into the lung tissue
Assay: Inhibition of the smoke-induced accumulation of granulocytes in the lung tissue (MPO activity)
Assay type: in vivo, rats (strain: Sprague-Dawley)
Conditions: Rattus norvegicus; male Sprague-Dawley rats, 5 days cigarette smoke exposure, intratracheal dose daily 30 min before smoke, lung tissue MPO, linear regression; read-out: ID50 (dosage which led to a 50% inhibition of the MPO activity)
Description: Inhibition of the Smoke-Induced Accumulation of Granulocytes in the Lung Tissue Lung indications: Inhibition of the cigarette smoke-induced influx of neutrophilic granulocytes into the lung tissue by the above-mentioned EGF-receptor kinase inhibitor. Male rats (strain: Sprague-Dawley) weighing from 250-300 g were exposed for 5 days to the smoke from 8 cigarettes per day. The animals in the group treated with compound A, anaesthetised with isofluran, were given an intratracheal dose of 0.03 or 0.1 mg/kg of compound A in a volume of 0.05 ml each day 30 min before the start of the exposure to smoke. On the last day of the test the animals were killed 4 hours after the last exposure to smoke and the lung tissue was removed. A sample of 70-200 mg was taken from each lung and placed in a test tube prepared with 1 ml of 0.5% hexadecyltrimethylammonium bromide. The samples were homogenised for 15 sec using an Ultraturrax. The homogenised samples were centrifuged at 15700 g in an Eppendorf bench centrifuge for 5 min at ambient temperature. […] of the supernatant was removed and mixed with […] of phosphate buffer (50 mmol/l) containing 0.197 mg/ml of O-dianisidine dihydrochloride. After 10 minutes' incubation at ambient temperature the absorption was measured with a spectral photometer at a wavelength of 450 nm. The dosage which led to a 50% inhibition of the MPO activity (=ID50) was determined by linear regression. Exposure to cigarette smoke in rats led to an influx of neutrophilic granulocytes into the lung tissue, measured by the content of myeloperoxidase in the tissues, which is specific for neutrophilic granulocytes.

Structure (SMILES)	ED50
COc1cc2ncnc(Nc3ccc(F)c(Cl)c3)c2cc1O[C@H]1CC[C@@H](N(C)C(=O)N2CCN(C)CC2)CC1 [I, 4-[(3-chloro-4-fluoro-phenyl)amino]-6-(cis-4-{N-[(4-methyl-piperazin-1-yl)carbonyl]-N-methyl-amino}-cyclohexan-1-yloxy)-7-methoxy-quinazoline]	0.15 mg/kg
C#Cc1cccc(Nc2ncnc3cc(OC)c(OC4CCN(C)CC4)cc23)c1 [M, 4-[(3-ethynyl-phenyl)amino]-6-(1-methyl-piperidin-4-yloxy)-7-methoxy-quinazoline]	0.07 mg/kg
COCC(=O)N1CCC(Oc2cc3c(Nc4ccc(F)c(Cl)c4)ncnc3cc2OC)CC1 [B, 4-[(3-chloro-4-fluoro-phenyl)amino]-6-{1-[(methoxymethyl)carbonyl]-piperidin-4-yloxy}-7-methoxy-quinazoline]	0.01 mg/kg
COc1cc2ncnc(Nc3ccc(F)c(Cl)c3)c2cc1O[C@H]1CC[C@@H](N(C)C(=O)N2CCCCC2)CC1 [H, 4-[(3-chloro-4-fluoro-phenyl)amino]-6-(cis-4-{N-[(piperidin-1-yl)carbonyl]-N-methyl-amino}-cyclohexan-1-yloxy)-7-methoxy-quinazoline]	0.15 mg/kg
COc1cc2ncnc(Nc3ccc(F)c(Cl)c3)c2cc1OC1CCN(C(=O)N2CCOCC2)CC1 [A, 4-[(3-chloro-4-fluoro-phenyl)amino]-6-{1-[(morpholin-4-yl)carbonyl]-piperidin-4-yloxy}-7-methoxy-quinazoline]	0.1 mg/kg
COCCOc1cc2ncnc(Nc3ccc(F)c(Cl)c3)c2cc1OC1CCN(C(=O)N2CCOCC2)CC1 [L, 4-[(3-chloro-4-fluoro-phenyl)amino]-6-{1-[(morpholin-4-yl)carbonyl]-piperidin-4-yloxy}-7-(2-methoxy-ethoxy)-quinazoline]	0.4 mg/kg
COc1cc2ncnc(Nc3ccc(F)c(Cl)c3)c2cc1OC1CCN(CCNC(C)=O)CC1 [C, 4-[(3-chloro-4-fluoro-phenyl)amino]-6-[1-(2-acetylamino-ethyl)-piperidin-4-yloxy]-7-methoxy-quinazoline]	0.03 mg/kg
COc1cc2ncnc(Nc3ccc(F)c(Cl)c3)c2cc1O[C@H]1CC[C@@H](N(C)S(=O)(=O)N2CCOCC2)CC1 [E, 4-[(3-chloro-4-fluoro-phenyl)amino]-6-(cis-4-{N-[(morpholin-4-yl)sulphonyl]-N-methyl-amino}-cyclohexan-1-yloxy)-7-methoxy-quinazoline]	0.4 mg/kg
COc1cc2ncnc(Nc3ccc(F)c(Cl)c3)c2cc1O[C@H]1CC[C@@H](NC(=O)N2CCOCC2)CC1 [K, 4-[(3-chloro-4-fluoro-phenyl)amino]-6-{cis-4-[(morpholin-4-yl)carbonylamino]-cyclohexan-1-yloxy}-7-methoxy-quinazoline]	0.13 mg/kg
COc1cc2ncnc(Nc3ccc(F)c(Cl)c3)c2cc1O[C@H]1CC[C@@H](NC(C)=O)CC1 [F, 4-[(3-chloro-4-fluoro-phenyl)amino]-6-(cis-4-acetylamino-cyclohexan-1-yloxy)-7-methoxy-quinazoline]	0.015 mg/kg
C#Cc1cccc(Nc2ncnc3cc(OC)c(OC4CCN(C(=O)OC(C)(C)C)CC4)cc23)c1 [G, 4-[(3-ethynyl-phenyl)amino]-6-[1-(tert.-butyloxycarbonyl)-piperidin-4-yloxy]-7-methoxy-quinazoline]	0.01 mg/kg
COc1cc2ncnc(Nc3ccc(F)c(Cl)c3)c2cc1O[C@H]1CC[C@@H](N(C)C(=O)C2CCOCC2)CC1 [D, 4-[(3-chloro-4-fluoro-phenyl)amino]-6-(cis-4-{N-[(tetrahydropyran-4-yl)carbonyl]-N-methyl-amino}-cyclohexan-1-yloxy)-7-methoxy-quinazoline]	0.02 mg/kg

Same assay, conditions: rats, intratracheal 0.03 or 0.1 mg/kg daily, 5 days smoke exposure, myeloperoxidase content of lung tissue

Structure (SMILES)	inhibition of the smoke-induced accumulation of granulocytes
COc1cc2ncnc(Nc3ccc(F)c(Cl)c3)c2cc1OC1CCN(C(=O)N2CCOCC2)CC1 [A, 4-[(3-chloro-4-fluoro-phenyl)amino]-6-{1-[(morpholin-4-yl)carbonyl]-piperidin-4-yloxy}-7-methoxy-quinazoline]	significant (p<0.005) inhibition
